Reference: PMC9298070, “Lack of a Clinically Meaningful Drug Interaction Between the HIV‐1 Antiretroviral Agents Islatravir, Dolutegravir, and Tenofovir Disoproxil Fumarate” (Clinical Pharmacology in Drug Development, 2021)
Structures can show the parent of a compound that is named as a salt. Where two headings read alike, the source gives them in different places.

Columns and labels:
[1] = design: method as in PMID 19884365; settings: once-daily multiple dosing; cited from earlier work
[2] = Plasma pharmacokinetics in phase 1, open-label, fixed-sequence, 2-period drug interaction trial (MK-8591-005); type: in vivo, human; settings: for C24, GMR (90%CI): Islatravir + Dolutegravir + TDF / Dolutegravir + TDF; for half-life / concentration at 24 h / AUC / Cmax / Tmax: human, oral; for half-life / concentration at 24 h / Cmax, GM (95%CI) / tmax, median (min‐max) / Apparent terminal t1/2, geometric mean (geometric CV %) / AUC / Cmax / Tmax: plasma, N = 12; for Tmax: read-out: tmax, median (min‐max)
Description: (§1) This was a phase 1, open‐label, fixed‐sequence, 2‐period trial in adults without HIV (protocol MK‐8591‐005). In period 1, participants received a single oral dose of 20 mg islatravir. In period 2, participants received multiple oral doses of 50 mg dolutegravir and 300 mg TDF once daily for 11 consecutive days (days 1‐11), with a single oral dose of 20 mg islatravir coadministered on day 8. There was a washout period of ≥7 days between islatravir dosing in period 1 and the first dose of dolutegravir and TDF in period 2 (Figure 1).
Blood samples for islatravir plasma analysis were collected before dosing and at selected time points over 96 hours following administration of islatravir on day 1 of period 1 and day 8 of period 2. In period 2, samples taken at 24, 48, and 72 hours for islatravir plasma analysis were collected before dose administration of dolutegravir and TDF. Blood samples for plasma analysis of dolutegravir and tenofovir were collected before dosing on days 1, 7, and 8 of period 2 and at selected time points over 24 hours after dosing on days 7 and 8 of period 2. The 24 hour samples for dolutegravir and tenofovir analysis for days 7 and 8 were collected before dosing of dolutegravir and TDF.
Plasma concentrations of islatravir, dolutegravir, and tenofovir were determined by inVentiv Health Clinique (Québec City, Québec, Canada) using validated high‐performance liquid chromatography coupled to tandem mass spectrometry methods.
Islatravir (m/z 294.000/154.000) was extracted using an automated protein precipitation method using [^13C,^15N3]‐ISL as internal standard (m/z 297.800/158.000). The extracted samples were assessed on a system equipped with a X Select HSS T3 C18, 50×2.1 mm, 2.5 μm column with water/acetonitrile with formic acid mobile phase. […] The lower limit of quantitation for islatravir was 0.10 ng/mL, with an analytical range of 0.10 to 100.00 ng/mL.
Dolutegravir (m/z 420.200/277.200) was extracted using an automated protein precipitation method using [C^13‐d5]‐dolutegravir as the internal standard (m/z 426.300/277.300). The extracted samples were assessed on a system equipped with an ACE 3 C18, 30 × 4.6 mm, 3 μm column (Avantor, Radnor, Pennsylvania) with water/methanol with ammonium formate and formic acid mobile phase. […] The lower limit of quantitation for dolutegravir was 10.00 ng/mL, with an analytical range of 10.00 to 10 000.00 ng/mL.
Tenofovir (m/z 288.200/176.200) was extracted using an automated solid phase extraction using tenofovir‐d6 as internal standard (m/z 294.100/182.300). The extracted samples were assessed on a system equipped with an Atlantis dC18, 75 × 4.6 mm, 3 μm column (Waters Corp., Milford, Massachusetts) with water/acetonitrile with ammonium formate and formic acid mobile phase. […] The lower limit of quantitation for tenofovir was 0.50 ng/mL, with an analytical range of 0.50 to 500.00 ng/mL.
Plasma islatravir, dolutegravir, and tenofovir pharmacokinetics were summarized descriptively. Pharmacokinetic parameter values were calculated using the software Phoenix WinNonlin version 6.3 (Certara, Princeton, New Jersey). Cmax, C24, and tmax values were obtained directly from the observed plasma concentration–time data.

[3] = Safety and tolerability in the phase 1 trial (adverse event reports, laboratory tests, ECG, vital signs); type: in vivo, human; settings: after administration of dolutegravir and TDF; of 12 participants
Description: as §1
Safety and tolerability were monitored by repeated clinical and laboratory evaluations for the duration of the trial. Safety evaluations included adverse event (AE) reports, laboratory tests, 12‐lead electrocardiograms, and vital signs.
Incidence of adverse experiences was descriptively summarized.

[4] = in vivo; cited from earlier work
[5] = steady state, 50 mg dolutegravir + 300 mg TDF once daily days 1-7, period 2, without islatravir, read-out: Apparent terminal t1/2, geometric mean (geometric CV %) (converted)
[6] = steady state, 50 mg dolutegravir + 300 mg TDF once daily days 1-7, period 2, without islatravir, read-out: Apparent terminal t1/2, AM (SD) (converted)
[7] = steady state, 50 mg dolutegravir + 300 mg TDF once daily days 1-7, period 2, without islatravir, read-out: C24, AM (SD)
[8] = steady state, 50 mg dolutegravir + 300 mg TDF once daily days 1-7, period 2, without islatravir, read-out: C24, GM (95%CI)
[9] = 50 mg dolutegravir + 300 mg TDF once daily with single 20 mg islatravir on day 8, period 2, read-out: C24, AM (SD)
[10] = 50 mg dolutegravir + 300 mg TDF once daily with single 20 mg islatravir on day 8, period 2, read-out: C24, GM (95%CI)
[11] = steady state, 50 mg dolutegravir + 300 mg TDF once daily days 1-7, period 2, without islatravir
[12] = 50 mg dolutegravir + 300 mg TDF once daily with single 20 mg islatravir on day 8, period 2

C24, GMR (90%CI) [2] | half-life [2, 5] | half-life [2, 6] | concentration at 24 h [2, 7] | concentration at 24 h [2, 8] | concentration at 24 h [2, 9] | concentration at 24 h [2, 10] | Apparent terminal t1/2, geometric mean (geometric CV %) [2, 12] | SMILES | participants reporting AEs considered drug-related [3] | further results
1.10 (1.03‐1.17) | 15.2 h | 15.3 h | 1220 ng/mL | 1120 ng/mL | 1310 ng/mL | 1240 ng/mL | 15.5 (16.2) h | C[C@@H]1CCO[C@H]2Cn3cc(C(=O)NCc4ccc(F)cc4F)c(=O)c(O)c3C(=O)N12 [Dolutegravir] | 3 participants | time to steady‐state concentrations [1]: ≤ 5 days; half-life ([2]; 50 mg dolutegravir + 300 mg TDF once daily with single 20 mg islatravir on day 8, period 2, read-out: Apparent terminal t1/2, AM (SD) (converted)): 15.7 h; Cmax, GM (95%CI) [2, 11]: 3500 (2770‐4430) ng/mL; tmax, median (min‐max) [2, 11]: 2.50 (0.50‐4.13) h; Cmax, GM (95%CI) [2, 12]: 3570 (2950‐4330) ng/mL; tmax, median (min‐max) [2, 12]: 3.00 (1.00‐6.03) h
– | – | – | – | – | – | – | – | CC(C)OC(=O)OCOP(=O)(CO[C@H](C)Cn1cnc2c(N)ncnc21)OCOC(=O)OC(C)C [TDF, tenofovir disoproxil fumarate] | 3 participants | –
1.05 (0.97‐1.14) | 13.7 h | 13.8 h | 43.6 ng/mL | 42.6 ng/mL | 45.3 ng/mL | 44.8 ng/mL | 13.2 (11.0) h | C[C@H](Cn1cnc2c(N)ncnc21)OCP(=O)(O)O [Tenofovir] | – | time to steady‐state concentrations [4]: ≤ 7 days; AUC ([2]; steady state, 50 mg dolutegravir + 300 mg TDF once daily days 1-7, period 2, without islatravir, read-out: AUC0‐24, AM (SD)): 2250 ng·h/mL; AUC ([2]; steady state, 50 mg dolutegravir + 300 mg TDF once daily days 1-7, period 2, without islatravir, read-out: AUC0‐24, GM (95%CI)): 2220 ng·h/mL; Cmax ([2]; steady state, 50 mg dolutegravir + 300 mg TDF once daily days 1-7, period 2, without islatravir, read-out: Cmax, AM (SD)): 346 ng/mL; Cmax ([2]; steady state, 50 mg dolutegravir + 300 mg TDF once daily days 1-7, period 2, without islatravir, read-out: Cmax, GM (95%CI)): 339 ng/mL; Tmax [2, 11]: 1 h; AUC ([2]; 50 mg dolutegravir + 300 mg TDF once daily with single 20 mg islatravir on day 8, period 2, read-out: AUC0‐24, AM (SD)): 2350 ng·h/mL; AUC ([2]; 50 mg dolutegravir + 300 mg TDF once daily with single 20 mg islatravir on day 8, period 2, read-out: AUC0‐24, GM (95%CI)): 2330 ng·h/mL; Cmax ([2]; 50 mg dolutegravir + 300 mg TDF once daily with single 20 mg islatravir on day 8, period 2, read-out: Cmax, AM (SD)): 343 ng/mL; Cmax ([2]; 50 mg dolutegravir + 300 mg TDF once daily with single 20 mg islatravir on day 8, period 2, read-out: Cmax, GM (95%CI)): 333 ng/mL; Tmax [2, 12]: 1.01 h
